Patent US20260191968A1, “PROTAC DEGRADERS OF MLLT1 AND/OR MLLT3” (DARK BLUE THERAPEUTICS LTD, priority 2024, published 2026)

Tests used:
Format in all cases: cell-based
[1] = tested on: MV4-11 cells; assay: MV4-11 cellular proliferative assay, Assay Format A (CellTiter-Glo, 120 hours); conditions: Homo sapiens
Experimental: An MV4-11 proliferation assay was used to test the ability of compounds to reduce cell viability. MV4-11 cells (ATCC #CRL9591) were grown in IMDM medium (11510596, Gibco) supplemented with 10% fetal bovine serum (F7524, Gibco) and 1% Penicillin/Streptomycin (15140-122, Gibco) at 37° C. with 5% CO2. Cells were seeded in 384-well Elplasia plates (4447, Corning) at a density of 50 cells/well and treated with vehicle (DMSO) or compounds (10 serial semi-log dilutions, 30 μM as top concentration).
After 120 hours of treatment, cells were incubated for 10 min at RT with the CellTiter-Glo (CTG) reagent (G7571, Promega). Measurement of the luminescence signal was performed on a microplate reader (Ensight, PerkinElmer). CTG reagent measures the amount of ATP, which is directly proportional to the number of cells, to determine the number of viable cells in culture.
The data were analysed as follows:
where x is the measured raw signal value of a well, (cr) is the median of the measured signal values for the Central Reference (DMSO) wells on a plate, (sr) is the median of the measured signal values for the Scale Reference (reference compound) wells on a plate.
where the experimental set-up assumes the Hill parameters in certain ranges: S0~Central Reference (CR) from normalization (=Bottom), Sinf~Scale Reference (SR) from normalization (=Top), nHill~1, AC50~within the measured concentration range.

[2] = target: T1, MLLT1 (Homo sapiens, UniProt Q03111); assay: MLLT1 degradation assay in MV4-11 cells (JESS chemiluminescent detection), three concentrations, 24 h; conditions: with respect to DMSO control
T1 construct: host or cells: MV4-11
T1 sequence (Q03111 1-559): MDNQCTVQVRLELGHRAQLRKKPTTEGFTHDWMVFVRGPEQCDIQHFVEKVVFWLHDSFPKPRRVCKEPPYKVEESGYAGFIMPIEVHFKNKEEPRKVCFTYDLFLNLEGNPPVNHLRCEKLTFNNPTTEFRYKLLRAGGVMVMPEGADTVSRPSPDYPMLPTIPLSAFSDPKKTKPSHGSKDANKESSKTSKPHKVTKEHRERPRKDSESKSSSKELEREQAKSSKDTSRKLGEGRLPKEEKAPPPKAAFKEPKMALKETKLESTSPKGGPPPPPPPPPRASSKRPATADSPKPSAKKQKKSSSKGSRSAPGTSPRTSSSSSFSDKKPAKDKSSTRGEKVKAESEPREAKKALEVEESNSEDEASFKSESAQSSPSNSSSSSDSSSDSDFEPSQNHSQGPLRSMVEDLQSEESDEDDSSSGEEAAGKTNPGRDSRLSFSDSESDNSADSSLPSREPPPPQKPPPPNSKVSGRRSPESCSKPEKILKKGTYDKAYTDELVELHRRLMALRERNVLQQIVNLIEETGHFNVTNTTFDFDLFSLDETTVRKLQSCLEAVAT
Procedure, shortened: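 MV4-11 cells treated 24 h at 37° C, 5% CO2 with 1000, 100 and 10 nM compound (0.1% DMSO final). MLLT1 quantified by automated capillary chemiluminescent immunodetection; band peak area expressed as % degradation relative to DMSO control.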

[3] = tested on: MV4-11 cells; assay: MV4-11 cellular proliferative assay, Assay Format B (CTG 2.0, 168 h); conditions: Homo sapiens, 168 h (7 days), CTG 2.0, read-out: IC50 (MV4-11 cellular proliferative assay, Assay format B)
Procedure, shortened: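 MV4-11 cells seeded overnight in IMDM + 10% FBS, then exposed to 10-point, 3-fold dilutions from 1 uM or 100 nM top concentration (0.3% DMSO final) for 168 h at 37 °C. CTG 2.0 luminescence read; % viability vs DMSO control fitted by four-parameter logistic regression.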

Row | IC50 [1] [µM] | MLLT1% Degradation @ 0.01 μM [2] | MLLT1% Degradation @ 0.1 μM [2] | MLLT1% Degradation @ 1 μM [2] | IC50 [3] [µM] | SMILES
1 | ≤ 0.1 | – | – | – | – | CN1CCC[C@@H]1c1cc2cnc(NC(=O)CCCC3CN(c4cccc5c4C(=O)N(C4CCC(=O)NC4=O)C5=O)C3)cc2[nH]1 (stereo partly drawn) [Example 48, 4-(1-(2-(2,6-dioxopiperidin-3-yl)-1,3-dioxoisoindolin-4-yl)azetidin-3-yl)-N-(2-((R)-1-methylpyrrolidin-2-yl)-1H-pyrrolo[3,2-c]pyridin-6-yl)butanamide]
2 | – | A (Category A: A ≥ 75% degradation) | A (Category A: A ≥ 75% degradation) | A (Category A: A ≥ 75% degradation) | ≤ 0.1 | CN1CCC[C@@H]1c1cc2cnc(NC(=O)c3ccc(-c4cnn(CCCC5CCN(c6cccc7c6C(=O)N(C6CCC(=O)NC6=O)C7=O)CC5)c4)cn3)cc2[nH]1 (stereo partly drawn) [Example 211, 5-(1-(3-(1-(2-(2,6-dioxopiperidin-3-yl)-1,3-dioxoisoindolin-4-yl)piperidin-4-yl)propyl)-1H-pyrazol-4-yl)-N-(2-((R)-1-methylpyrrolidin-2-yl)-1H-pyrrolo[3,2-c]pyridin-6-yl)picolinamide]
3 | – | A (Category A: A ≥ 75% degradation) | A (Category A: A ≥ 75% degradation) | A (Category A: A ≥ 75% degradation) | ≤ 0.1 | CN1CCC[C@@H]1c1cc2cnc(NC(=O)c3ccc(-c4cnn(CCCC5CCN(c6cccc7c6CN(C6CCC(=O)NC6=O)C7=O)CC5)c4)cc3F)cc2[nH]1 (stereo partly drawn) [Example 212, 4-(1-(3-(1-(2-(2,6-dioxopiperidin-3-yl)-1-oxoisoindolin-4-yl)piperidin-4-yl)propyl)-1H-pyrazol-4-yl)-2-fluoro-N-(2-((R)-1-methylpyrrolidin-2-yl)-1H-pyrrolo[3,2-c]pyridin-6-yl)benzamide]
4 | – | A (Category A: A ≥ 75% degradation) | A (Category A: A ≥ 75% degradation) | A (Category A: A ≥ 75% degradation) | ≤ 0.1 | CN1CCC[C@@H]1c1cc2cnc(NC(=O)c3ccc(OCCCC#Cc4cccc5c4CN(C4CCC(=O)NC4=O)C5=O)cc3F)cc2[nH]1 (stereo partly drawn) [Example 213, 4-((5-(2-(2,6-dioxopiperidin-3-yl)-1-oxoisoindolin-4-yl)pent-4-yn-1-yl)oxy)-2-fluoro-N-(2-((R)-1-methylpyrrolidin-2-yl)-1H-pyrrolo[3,2-c]pyridin-6-yl)benzamide]
5 | – | A (Category A: A ≥ 75% degradation) | A (Category A: A ≥ 75% degradation) | A (Category A: A ≥ 75% degradation) | ≤ 0.1 | CN1CCC[C@@H]1c1cc2cnc(NC(=O)c3ccc(OCCC4CCN(c5cccc6c5CN(C5CCC(=O)NC5=O)C6=O)CC4)cn3)cc2[nH]1 (stereo partly drawn) [Example 216, 5-(2-(1-(2-(2,6-dioxopiperidin-3-yl)-1-oxoisoindolin-4-yl)piperidin-4-yl)ethoxy)-N-(2-((R)-1-methylpyrrolidin-2-yl)-1H-pyrrolo[3,2-c]pyridin-6-yl)picolinamide]
6 | – | A (Category A: A ≥ 75% degradation) | A (Category A: A ≥ 75% degradation) | A (Category A: A ≥ 75% degradation) | ≤ 0.1 | CN1CCC[C@@H]1c1cc2cnc(NC(=O)c3cc(F)c(OCCC4CCN(c5cccc6c5CN(C5CCC(=O)NC5=O)C6=O)CC4)cc3F)cc2[nH]1 (stereo partly drawn) [Example 230, 4-(2-(1-(2-(2,6-dioxopiperidin-3-yl)-1-oxoisoindolin-4-yl)piperidin-4-yl)ethoxy)-2,5-difluoro-N-(2-((R)-1-methylpyrrolidin-2-yl)-1H-pyrrolo[3,2-c]pyridin-6-yl)benzamide]
7 | – | A (Category A: A ≥ 75% degradation) | A (Category A: A ≥ 75% degradation) | A (Category A: A ≥ 75% degradation) | ≤ 0.1 | CN1CCC[C@@H]1c1cc2cnc(NC(=O)c3ccc(OCCC4CCN(c5cccc6c5CN(C5CCC(=O)NC5=O)C6=O)CC4)c(F)c3F)cc2[nH]1 (stereo partly drawn) [Example 231, 4-(2-(1-(2-(2,6-dioxopiperidin-3-yl)-1-oxoisoindolin-4-yl)piperidin-4-yl)ethoxy)-2,3-difluoro-N-(2-((R)-1-methylpyrrolidin-2-yl)-1H-pyrrolo[3,2-c]pyridin-6-yl)benzamide]

Row | SMILES | IC50 [1] [µM] | MLLT1% Degradation @ 0.01 μM [2] | MLLT1% Degradation @ 0.1 μM [2] | MLLT1% Degradation @ 1 μM [2] | IC50 [3] [µM]
8 | CN1CCC[C@@H]1c1cc2cnc(NC(=O)c3ccc(-c4ccn(CCCC#Cc5cccc6c5CN(C5CCC(=O)NC5=O)C6=O)n4)cc3)cc2[nH]1 (mixture of isomers) [Example 20, 4-(1-(5-(2-(2,6-dioxopiperidin-3-yl)-1-oxoisoindolin-4-yl)pent-4-yn-1-yl)-1H-pyrazol-3-yl)-N-(2-((R)-1-methylpyrrolidin-2-yl)-1H-pyrrolo[3,2-c]pyridin-6-yl)benzamide] | ≤ 0.1 | B (Category B: 50% ≤ B < 75% degradation) | B (Category B: 50% ≤ B < 75% degradation) | C (Category C: 25% ≤ C < 50% degradation) | –
9 | CN1CCC[C@@H]1c1cc2cnc(NC(=O)c3ccc(CC4CCN(c5cccc6c5C(=O)N(C5CCC(=O)NC5=O)C6=O)CC4)cc3)cc2[nH]1 (stereo partly drawn) [Example 3, 4-((1-(2-(2,6-dioxopiperidin-3-yl)-1,3-dioxoisoindolin-4-yl)piperidin-4-yl)methyl)-N-(2-((R)-1-methylpyrrolidin-2-yl)-1H-pyrrolo[3,2-c]pyridin-6-yl)benzamide] | ≤ 0.1 | C (Category C: 25% ≤ C < 50% degradation) | A (Category A: A ≥ 75% degradation) | A (Category A: A ≥ 75% degradation) | –
10 | CN1CCC[C@@H]1c1cc2cnc(NC(=O)c3ccc(CCC4CCN(c5cccc6c5C(=O)N(C5CCC(=O)NC5=O)C6=O)CC4)cc3)cc2[nH]1 (stereo partly drawn) [Example 4, 4-(2-(1-(2-(2,6-dioxopiperidin-3-yl)-1,3-dioxoisoindolin-4-yl)piperidin-4-yl)ethyl)-N-(2-((R)-1-methylpyrrolidin-2-yl)-1H-pyrrolo[3,2-c]pyridin-6-yl)benzamide] | ≤ 0.1 | B (Category B: 50% ≤ B < 75% degradation) | A (Category A: A ≥ 75% degradation) | A (Category A: A ≥ 75% degradation) | –
11 | CN1CCC[C@@H]1c1cc2cnc(NC(=O)c3ccc(OCCC#Cc4cccc5c4CN(C4CCC(=O)NC4=O)C5=O)cc3)cc2[nH]1 (stereo partly drawn) [Example 19, 4-((4-(2-(2,6-dioxopiperidin-3-yl)-1-oxoisoindolin-4-yl)but-3-yn-1-yl)oxy)-N-(2-((R)-1-methylpyrrolidin-2-yl)-1H-pyrrolo[3,2-c]pyridin-6-yl)benzamide] | ≤ 0.1 | B (Category B: 50% ≤ B < 75% degradation) | A (Category A: A ≥ 75% degradation) | A (Category A: A ≥ 75% degradation) | –
12 | CN1CCC[C@@H]1c1cc2cnc(NC(=O)c3ccc(-c4cnn(CCCC5CCN(c6cccc7c6C(=O)N(C6CCC(=O)NC6=O)C7=O)CC5)c4)cc3F)cc2[nH]1 (stereo partly drawn) [Example 210, 4-(1-(3-(1-(2-(2,6-dioxopiperidin-3-yl)-1,3-dioxoisoindolin-4-yl)piperidin-4-yl)propyl)-1H-pyrazol-4-yl)-2-fluoro-N-(2-((R)-1-methylpyrrolidin-2-yl)-1H-pyrrolo[3,2-c]pyridin-6-yl)benzamide] | – | B (Category B: 50% ≤ B < 75% degradation) | A (Category A: A ≥ 75% degradation) | A (Category A: A ≥ 75% degradation) | ≤ 0.1
